Bridge positions count the residues as written; N and C are the ends. Square brackets hold non-standard residues; d marks the D form. Peptide text beside a SMILES is read from it. Hyp = O=C(O)[C@@H]1C[C@@H](O)CN1
The compounds below were run against T1, hAMY3 receptor (Homo sapiens, UniProt O60896+P30988) (assay: cAMP assay for in vitro receptor activation, hAMY3-R). Details: cAMP assay, hAMY3 receptor; read-out: hAMY3R EC50.
T1 sequence (P30988 25-474): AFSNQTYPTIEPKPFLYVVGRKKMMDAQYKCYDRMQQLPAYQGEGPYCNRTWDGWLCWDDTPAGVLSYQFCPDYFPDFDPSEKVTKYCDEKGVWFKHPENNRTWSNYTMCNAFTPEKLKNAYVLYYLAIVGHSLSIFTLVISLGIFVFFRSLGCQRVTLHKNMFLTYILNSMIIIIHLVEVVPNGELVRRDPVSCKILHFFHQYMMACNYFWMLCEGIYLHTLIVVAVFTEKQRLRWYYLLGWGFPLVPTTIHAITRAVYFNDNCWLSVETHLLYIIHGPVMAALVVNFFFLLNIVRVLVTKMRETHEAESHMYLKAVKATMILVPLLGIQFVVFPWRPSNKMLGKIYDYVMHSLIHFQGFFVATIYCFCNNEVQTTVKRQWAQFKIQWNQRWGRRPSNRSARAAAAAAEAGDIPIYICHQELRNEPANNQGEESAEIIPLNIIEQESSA
T1 sequence (O60896 24-148 partner): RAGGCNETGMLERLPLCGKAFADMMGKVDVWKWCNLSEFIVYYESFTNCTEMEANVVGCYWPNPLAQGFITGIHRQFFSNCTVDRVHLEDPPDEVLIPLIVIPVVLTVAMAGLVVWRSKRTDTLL
Type: cell-based
In short: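 Thawed cells from a sub-cloned monoclonal hAMY3-overexpressing line are plated in DPBS containing 0.05% casein and 0.5 mM IBMX. Test compounds are added immediately at graded doses for 30 min at room temperature. Reagents for cAMP detection are then added, and TR-FRET is recorded after one hour.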

Point of comparison: `CC[C@H](C)[C@H](NC(=O)[C@H](CCCCN)NC(=O)[C@@H](NC(=O)[C@H](CCCNC(=N)N)NC(=O)[C@@H]1CCCN1C(=O)[C@H](C)NC(=O)[C@@H](NC(=O)[C@H](CC(N)=O)NC(=O)[C@H](CC(=O)O)NC(=O)[C@H](CCCCN)NC(=O)[C@H](CC(=O)O)NC(=O)[C@H](CCCCN)NC(=O)[C@H](CC(=O)O)NC(=O)[C@@H](NC(=O)[C@H](Cc1ccccc1)NC(=O)[C@H](CCC(N)=O)NC(=O)[C@H](Cc1ccc(O)cc1)NC(=O)[C@@H](NC(=O)[C@H](CCC(N)=O)NC(=O)[C@H](Cc1c[nH]cn1)NC(=O)[C@H](C)NC(=O)[C@H](CC(C)C)NC(=O)[C@H](CCCNC(=N)N)NC(=O)[C@H](CCC(N)=O)NC(=O)[C@@H](NC(=O)[C@@H](NC(=O)[C@@H]1CSSC[C@H](NC(=O)CN)C(=O)N[C@@H](CCCNC(=N)N)C(=O)N[C@@H](Cc2ccccc2)C(=O)NCC(=O)N[C@@H]([C@@H](C)O)C(=O)N1)[C@@H](C)O)C(C)C)[C@@H](C)CC)[C@@H](C)O)C(C)C)[C@@H](C)O)C(=O)NCC(=O)N1CCC[C@H]1C(=O)N[C@@H](CCC(N)=O)C(=O)NCC(=O)N1C[C@H](O)C[C@H]1C(N)=O` [compound 111] (H-GCRFGTCTVQRLAHQIYQFTDKDKDNVAPRTKIGPQG[Hyp]-NH2; disulfide 2-7; N-terminus assumed), EC50 0.021 nM. Against it:
- CC(C)C[C@H](NC(=O)[C@H](CCCNC(=N)N)NC(=O)[C@H](CCC(N)=O)NC(=O)[C@@H](NC(=O)[C@@H](NC(=O)[C@@H]1CSSC[C@H](NC(=O)CN)C(=O)N[C@@H](CCCNC(=N)N)C(=O)N[C@@H](Cc2ccccc2)C(=O)NCC(=O)N[C@@H]([C@@H](C)O)C(=O)N1)[C@@H](C)O)C(C)C)C(=O)N[C@@H](C)C(=O)N[C@@H](Cc1c[nH]cn1)C(=O)N[C@@H](Cc1ccccc1)C(=O)N[C@@H](CC(C)C)C(=O)N[C@@H](Cc1ccc(O)cc1)C(=O)N[C@@H](CCC(N)=O)C(=O)N[C@@H](Cc1ccccc1)C(=O)N[C@H](C(=O)N[C@@H](CC(=O)O)C(=O)N[C@@H](CCCCN)C(=O)N[C@@H](CC(=O)O)C(=O)N[C@@H](CCCCN)C(=O)N[C@@H](CC(=O)O)C(=O)N[C@@H](CC(N)=O)C(=O)N[C@H](C(=O)N[C@@H](C)C(=O)N1CCC[C@H]1C(=O)N[C@@H](CCCNC(=N)N)C(=O)N[C@H](C(=O)N[C@@H](CCCCN)C(=O)N[C@H](C(=O)NCC(=O)N[C@@H](CO)C(=O)N[C@@H](CC(N)=O)C(=O)NCC(=O)N[C@@H](Cc1ccc(O)cc1)C(N)=O)C(C)C)[C@@H](C)O)C(C)C)[C@@H](C)O [compound 117] (H-GCRFGTCTVQRLAHFLYQFTDKDKDNVAPRTKVGSNGY-NH2; disulfide 2-7; N-terminus assumed) — within 1.5-fold, 0.024 nM
- CC[C@H](C)[C@H](NC(=O)[C@H](C)NC(=O)CNC(=O)[C@H](CC(=O)O)NC(=O)[C@H](CCCCN)NC(=O)[C@H](CC(=O)O)NC(=O)[C@@H](NC(=O)[C@H](Cc1ccccc1)NC(=O)[C@H](CCC(N)=O)NC(=O)[C@H](Cc1ccc(O)cc1)NC(=O)[C@H](CC(C)C)NC(=O)[C@H](Cc1ccccc1)NC(=O)[C@H](Cc1c[nH]cn1)NC(=O)[C@H](C)NC(=O)[C@H](CC(C)C)NC(=O)[C@H](CCCNC(=N)N)NC(=O)[C@H](CCC(N)=O)NC(=O)[C@@H](NC(=O)[C@@H](NC(=O)[C@@H]1CSSC[C@H](NC(=O)CN)C(=O)N[C@@H](CCCNC(=N)N)C(=O)N[C@@H](Cc2ccccc2)C(=O)NCC(=O)N[C@@H]([C@@H](C)O)C(=O)N1)[C@@H](C)O)C(C)C)[C@@H](C)O)C(=O)N[C@@H](C)C(=O)N1CCC[C@H]1C(=O)N[C@@H](CCCNC(=N)N)C(=O)N[C@H](C(=O)N[C@@H](CCCCN)C(=O)N[C@H](C(=O)NCC(=O)N[C@@H](CO)C(=O)N[C@@H](CCC(N)=O)C(=O)NCC(=O)N[C@@H](Cc1ccc(O)cc1)C(N)=O)[C@@H](C)CC)[C@@H](C)O [compound 123] (H-GCRFGTCTVQRLAHFLYQFTDKDGAIAPRTKIGSQGY-NH2; disulfide 2-7; N-terminus assumed) — within 1.5-fold, 0.027 nM
- CC[C@H](C)[C@H](NC(=O)[C@H](CC(N)=O)NC(=O)[C@@H](NC(=O)[C@H](CCCNC(=N)N)NC(=O)[C@@H]1CCCN1C(=O)[C@H](C)NC(=O)[C@@H](NC(=O)[C@H](CC(N)=O)NC(=O)[C@H](CC(=O)O)NC(=O)[C@H](CCCCN)NC(=O)[C@H](CC(=O)O)NC(=O)[C@H](CCCCN)NC(=O)[C@H](CC(=O)O)NC(=O)[C@@H](NC(=O)[C@H](Cc1ccccc1)NC(=O)[C@H](CCC(N)=O)NC(=O)[C@H](Cc1ccc(O)cc1)NC(=O)[C@@H](NC(=O)[C@H](CCC(N)=O)NC(=O)[C@H](Cc1c[nH]cn1)NC(=O)[C@H](C)NC(=O)[C@H](CC(C)C)NC(=O)[C@H](CCCNC(=N)N)NC(=O)[C@H](CCC(N)=O)NC(=O)[C@@H](NC(=O)[C@@H](NC(=O)[C@@H]1CSSC[C@H](NC(=O)CN)C(=O)N[C@@H](CCCNC(=N)N)C(=O)N[C@@H]([C@@H](C)O)C(=O)NCC(=O)N[C@@H]([C@@H](C)O)C(=O)N1)[C@@H](C)O)C(C)C)[C@@H](C)CC)[C@@H](C)O)C(C)C)[C@@H](C)O)C(=O)NCC(=O)N1CCC[C@H]1C(=O)N[C@@H](CC(N)=O)C(=O)NCC(=O)N[C@@H](Cc1ccc(O)cc1)C(N)=O [compound 142] (H-GCRTGTCTVQRLAHQIYQFTDKDKDNVAPRTNIGPNGY-NH2; disulfide 2-7; N-terminus assumed) — 1.7-fold higher, 0.036 nM
- CC[C@H](C)[C@H](NC(=O)[C@H](CC(N)=O)NC(=O)[C@H](CO)NC(=O)[C@H](CCCNC(=N)N)NC(=O)[C@@H]1CCCN1C(=O)[C@H](C)NC(=O)[C@@H](NC(=O)[C@H](CC(N)=O)NC(=O)[C@H](CC(=O)O)NC(=O)[C@H](CCCCN)NC(=O)[C@H](CC(=O)O)NC(=O)[C@H](CCCCN)NC(=O)[C@H](CC(=O)O)NC(=O)[C@@H](NC(=O)[C@H](Cc1ccccc1)NC(=O)[C@H](CCC(N)=O)NC(=O)[C@H](Cc1ccc(O)cc1)NC(=O)[C@@H](NC(=O)[C@H](CCC(N)=O)NC(=O)[C@H](Cc1c[nH]cn1)NC(=O)[C@H](C)NC(=O)[C@H](CC(C)C)NC(=O)[C@H](CCCNC(=N)N)NC(=O)[C@H](CCC(N)=O)NC(=O)[C@@H](NC(=O)[C@@H](NC(=O)[C@@H]1CSSC[C@H](NC(=O)CN)C(=O)N[C@@H](CCCNC(=N)N)C(=O)N[C@@H]([C@@H](C)O)C(=O)NCC(=O)N[C@@H]([C@@H](C)O)C(=O)N1)[C@@H](C)O)C(C)C)[C@@H](C)CC)[C@@H](C)O)C(C)C)C(=O)NCC(=O)N1CCC[C@H]1C(=O)N[C@@H](CC(N)=O)C(=O)NCC(=O)N1C[C@H](O)C[C@H]1C(N)=O [compound 151] (H-GCRTGTCTVQRLAHQIYQFTDKDKDNVAPRSNIGPNG[Hyp]-NH2; disulfide 2-7; N-terminus assumed) — 2-fold higher, 0.041 nM

Reference: US12139520B2 (priority 2020, dated 2024)
